Laboratory results reported in US11317629B2, “Liquid composition comprising mefentrifluconazole” (SUMITOMO CHEMICAL COMPANY, LIMITED, priority 2019, dated 2022).

What was measured:
corn (variety: Pioneer) [1] = assay: Phytotoxicity Test Example 2: compositions sprayed onto corn plants, plant length; format: in vivo; details: 2,000 ppm
Procedure: A liquid composition comprising 2,000 ppm of mefentrifluconazole, 10% by volume of an oil adjuvant and water (hereinafter referred to as Present Composition 13) were prepared by diluting mefentrifluconazole SC and an oil adjuvant (COC: Agri-Dex, containing 82% of heavy range paraffinic oil, 17% of surfactant, and 1% of other components, manufactured by Helena) with water and mixing them. Similarly to the Present Composition 13, a liquid compositions (hereinafter referred to as Present Composition 14) were prepared by replacing Agri-Dex with Sundance II (MSO, containing 90% of methylated seed oil and 10% of alkyl and aryl alkoxylates and phosphate esters). Similarly to the Present Composition 13, a liquid composition (hereinafter referred to as Present Composition 15) were prepared by replacing Agri-Dex with Destiny (HSOC, containing 50% of methylated seed oil, 42% of sorbitan fatty acid esters and high fructose corn syrup, and 8% of other ingredients). […]
A soil was filled into a plastic pot, and corn (variety: Pioneer) was seeded therein, and grown in a greenhouse for 4 days. […] After spraying, the plants were placed in the greenhouse for 8 days, then the plant lengths were measured. […]
From the plant lengths in each of the treated plants and the non-treated plants, the relative length of the compositions was determined according to the above “Formula 2”.

corn (variety: Pioneer) [2] = assay: Phytotoxicity Test Example 1: compositions dripped into the whorl of corn plants, plant length; format: in vivo; details: 10,000 ppm
Procedure: Liquid compositions comprising 10,000 ppm of mefentrifluconazole, 1.25 or 10% by volume of an oil adjuvant and water (hereinafter referred to as Present Composition 7 and Present Composition 8) were prepared by diluting mefentrifluconazole SC and an oil adjuvant (COC: Agri-Dex, containing 82% of heavy range paraffinic oil, 17% of surfactant, and 1% of other components, manufactured by Helena), respectively, with water and mixing them. Similarly to the Present Composition 7 and 8, liquid compositions (hereinafter referred to as Present Composition 9 and Present Composition 10) were prepared by replacing Agri-Dex with Sundance II (MSO, containing 90% of methylated seed oil and 10% of alkyl and aryl alkoxylates and phosphate esters). […]
A soil was filled into a plastic pot, and corn (variety: Pioneer) was seeded therein, and grown in a greenhouse for 4 days. […] After dripping, the plants were placed in the greenhouse for 8 days, then the plant lengths were measured. […]
From the plant lengths in each of the treated plants and the non-treated plants, the relative length of the compositions was determined according to the following “Formula 2”. […]

N#CC(CCc1ccc(Cl)cc1)(Cn1cncn1)c1ccccc1 (stereo not shown) [fenbuconazole]
Effect of addition of oil adjuvants on corn plant length (corn (variety: Pioneer) [1]; oil adjuvants 10% by volume): enhanced the retardation | Effect on plant length without adjuvant (corn (variety: Pioneer) [1]; without adjuvant): did not effect on plant length | Effect of addition of oil adjuvants on retardation of corn plant (corn (variety: Pioneer) [2]; oil adjuvants 1.25 or 10% by volume): severely enhanced the retardation | Retardation of corn plant without adjuvant (corn (variety: Pioneer) [2]; without adjuvant): retarded corn plant slightly
